Test results: patent US12162867B2, “Inhibitors of RNA helicase DHX9 and uses thereof” (ACCENT THERAPEUTICS, INC., priority 2022, dated 2024)
Like-named read-outs stand apart in the source and are kept apart here.

Key:
[1] = test system: circBRIP1 in HCT116 cells; assay: DHX9 circBRIP1 cellular target engagement SYBR Green assay (qPCR); assay type: cell-based; conditions: Homo sapiens, HCT-116, circBRIP1, HCT116 cells; SyBr assay (marked ^+); read-out: DHX9 Cellular Target Engagement EC50
[2] = target: T1, Human recombinant DHX9 protein (Homo sapiens, UniProt Q08211); assay: DHX9 ATPase assay (ADP-Glo); assay type: biochemical; conditions: inflection point of dose-response curve, read-out: DHX9 Biochemical Inflection Point
T1 construct: purchased Viva
T1 sequence (Q08211 whole entry): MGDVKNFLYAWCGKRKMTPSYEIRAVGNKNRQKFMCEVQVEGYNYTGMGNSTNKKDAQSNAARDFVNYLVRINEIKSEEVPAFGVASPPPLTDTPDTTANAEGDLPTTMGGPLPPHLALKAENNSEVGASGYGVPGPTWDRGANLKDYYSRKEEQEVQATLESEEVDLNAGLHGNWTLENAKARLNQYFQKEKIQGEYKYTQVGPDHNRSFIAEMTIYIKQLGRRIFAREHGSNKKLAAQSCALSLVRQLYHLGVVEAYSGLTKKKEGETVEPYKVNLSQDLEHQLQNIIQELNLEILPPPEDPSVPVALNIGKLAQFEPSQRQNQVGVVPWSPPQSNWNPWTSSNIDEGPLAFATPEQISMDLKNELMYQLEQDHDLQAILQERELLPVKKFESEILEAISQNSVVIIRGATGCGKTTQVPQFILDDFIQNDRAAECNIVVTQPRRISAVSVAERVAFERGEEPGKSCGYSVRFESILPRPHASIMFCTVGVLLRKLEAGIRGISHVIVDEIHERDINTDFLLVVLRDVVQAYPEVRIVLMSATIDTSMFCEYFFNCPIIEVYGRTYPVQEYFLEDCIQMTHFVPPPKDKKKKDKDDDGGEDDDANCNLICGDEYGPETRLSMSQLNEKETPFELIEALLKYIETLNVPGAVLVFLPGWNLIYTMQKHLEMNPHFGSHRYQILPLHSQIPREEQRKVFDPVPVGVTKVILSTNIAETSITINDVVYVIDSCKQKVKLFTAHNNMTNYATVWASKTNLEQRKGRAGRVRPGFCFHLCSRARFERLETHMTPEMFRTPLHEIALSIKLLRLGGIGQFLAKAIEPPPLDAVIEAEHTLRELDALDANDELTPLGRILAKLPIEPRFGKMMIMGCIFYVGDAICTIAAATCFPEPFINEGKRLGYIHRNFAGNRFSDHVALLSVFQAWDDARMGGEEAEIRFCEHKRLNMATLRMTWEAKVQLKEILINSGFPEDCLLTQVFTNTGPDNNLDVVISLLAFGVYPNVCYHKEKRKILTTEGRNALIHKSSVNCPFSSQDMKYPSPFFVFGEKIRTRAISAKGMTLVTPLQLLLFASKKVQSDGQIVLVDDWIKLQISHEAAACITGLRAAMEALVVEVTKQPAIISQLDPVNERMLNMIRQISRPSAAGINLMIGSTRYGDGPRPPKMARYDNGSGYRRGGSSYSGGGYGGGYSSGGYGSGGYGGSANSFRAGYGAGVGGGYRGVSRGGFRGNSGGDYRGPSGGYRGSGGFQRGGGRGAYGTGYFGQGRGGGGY

LS411N cells = assay: DHX9 cellular proliferation assay (CellTiter-Glo), LS411N (CRC-MSI); assay type: cell-based; conditions: Homo sapiens, LS-411N, LS411N, performed at Pharmaron, read-out: LS411N (CRC-MSI-H) Antiproliferative IC50
NCI-H747 cells = assay: DHX9 cellular proliferation assay (CellTiter-Glo), NCI-H747 (CRC-MSS); assay type: cell-based; conditions: Homo sapiens, performed at Pharmaron, read-out: H747 (CRC-MSS) Antiproliferative IC50
[3] = test system: circBRIP1 in HCT116 cells; assay: DHX9 circBRIP1 cellular target engagement TaqMan Multiplex assay (qPCR); assay type: cell-based; conditions: Homo sapiens, read-out: DHX9 Cellular Target Engagement EC50
[4] = HCT-116, circBRIP1, HCT116 cells, * Taqman assay was used
[5] = HCT-116, 72 h, circBRIP1, HCT116 cells, 72 hours, Taqman assay (marked *)

| Structure (SMILES) | EC50 [1] [nM] | IC50 [2] [nM] | IC50 (NCI-H747 cells; NCI-H747, NCI-H747) [nM] | EC50 [3, 4] [nM] | IC50 (NCI-H747 cells; NCI-H747, NCI-H747, CRC-MSS) [nM] | EC50 [3, 5] [nM] | IC50 (LS411N cells) [nM] | IC50 (LS411N cells; CRC-MSI-H) [nM] |
| --- | --- | --- | --- | --- | --- | --- | --- | --- |
| CC(C)(C)OC(=O)NC1CC2(C1)CC(n1cc(C(=O)Nc3cc(Cl)cc(NS(C)(=O)=O)c3)cn1)C2 (centres unmarked) [Example 318] | 4900 | 207 |  |  |  |  |  |  |
| CS(=O)(=O)Nc1cc(Cl)cc(NC(=O)c2cnn([C@H]3CCC[C@H]3c3ccccc3)c2)c1 (single isomer, unassigned) [Example 260] | > 10000 | 715 |  |  |  |  |  |  |
| CS(=O)(=O)Nc1cc(Cl)cc(NC(=O)c2cnn([C@@H]3CCCC[C@H]3O)c2)c1 (single isomer, unassigned) [Example 150, N-(3-chloro-5-(methylsulfonamido)phenyl)-1-(trans-2-hydroxycyclohexyl)-1H-pyrazole-4-carboxamide] | 6560 | 147 |  |  |  |  |  |  |
| CS(=O)(=O)Nc1cc(Cl)cc(NC(=O)c2cc(-c3ncc(F)cc3OCc3cncnc3)n(CC(F)(F)F)c2)c1 [Example 735] |  |  | > 10000 | 77.2 |  |  | 306 |  |
| COc1cnc(-c2cc(C(=O)Nc3cc(Cl)cc(NS(C)(=O)=O)c3)cn2C)nc1 [Example 549] |  |  | > 10000 | 48.3 |  |  | 369 |  |
| COc1ccc(-c2cc(C(=O)Nc3cc(Cl)cc(NS(C)(=O)=O)c3)sc2C)nc1 [Example 352] |  |  |  |  | 8750 | 21 |  | 50 |
| Cc1sc(C(=O)Nc2cc(Cl)cc(NS(C)(=O)=O)c2)cc1-c1ncc(N2CC(F)(F)C2)cn1 [Example 510] |  |  | > 10000 | 16.1 |  |  | 123 |  |
| Cc1sc(C(=O)Nc2cc(Cl)cc(NS(C)(=O)=O)c2)cc1-c1ncc(OC(C)(C)C)cc1F [Example 381] |  |  |  |  | 965 | 183 |  | 347 |
| Cc1sc(C(=O)Nc2cc(Cl)cc(NS(C)(=O)=O)c2)cc1-c1ncc(N2CCC3(C2)CC3(F)F)cc1F (centres unmarked) [Example 480] |  |  | > 10000 | 55.8 |  |  | 150 |  |
| COc1cc(F)cnc1-c1cc(C(=O)Nc2cc(Cl)cc(NS(C)(=O)=O)c2)sc1C [Example 351] |  |  |  |  | > 10000 | 28.6 |  | 82 |
| Cc1cc(C#N)cnc1-c1cc(C(=O)Nc2cc(Cl)cc(NS(C)(=O)=O)c2)sc1C [Example 376] |  |  |  |  | > 10000 | 69.9 |  | 303 |
| CN1CC(Oc2cnc(-c3cc(C(=O)Nc4cc(Cl)cc(NS(C)(=O)=O)c4)cn3C)c(F)c2)C1 [Example 611] |  |  | 8830 | 20.5 |  |  | 133 |  |
| Cc1sc(C(=O)Nc2cc(Cl)cc(NS(C)(=O)=O)c2)cc1-c1ncc(OC2CNC2)cn1 [Example 636, 4-[5-(azetidin-3-yloxy)pyrimidin-2-yl]-N-(3-chloro-5-methanesulfonamidophenyl)-5-methylthiophene-2-carboxamide] |  |  | > 10000 | 300 |  |  | 1210 |  |
| CS(=O)(=O)Nc1cc(Cl)cc(NC(=O)c2cc(-c3ncc(C(F)(F)F)cn3)cs2)c1 [Example 369] |  |  |  |  | > 10000 | 86.8 |  | 227 |
| CCS(=O)(=O)Nc1cc(Cl)cc(NC(=O)c2cc(-c3ncc(N4CC(F)(F)C4)cn3)c(C)s2)c1 [Example 463] |  |  | > 10000 | 18 |  |  | 59.3 |  |
| Cc1cc(C(=O)Nc2cc(Cl)cc(NS(C)(=O)=O)c2)cn1-c1ccc(N2CC3COCC3C2)cn1 (centres unmarked) [Example 405] |  |  | > 10000 | 26.1 |  |  | 116 |  |
| Cc1sc(C(=O)Nc2cc(Cl)cc(NS(C)(=O)=O)c2)cc1-c1ncc(N2CC(F)(F)C2)cc1C#N [Example 715] |  |  | 9760 | 14.4 |  |  | 69.9 |  |
| CCS(=O)(=O)Nc1cc(Cl)cc(NC(=O)c2cc(-c3ccc(F)cn3)c(C)s2)c1 [Example 346] |  |  |  |  | 7340 | 43.8 |  | 71.6 |
| Cn1cc(C(=O)Nc2cc(Cl)cc(NS(C)(=O)=O)c2)cc1-c1ncc(N2CC3(C2)CC(F)(F)C3)cc1F [Example 702] |  |  | 8120 | 31.6 |  |  | 224 |  |
| COC(=O)N1CCN(c2ccc(-c3cc(C(=O)Nc4cc(Cl)cc(NS(C)(=O)=O)c4)cn3C)nc2)CC1 [Example 596] |  |  | 9880 | 38 |  |  | 172 |  |
| Cn1cc(C(=O)Nc2cc(Cl)cc(NS(C)(=O)=O)c2)cc1-c1ncc(F)cc1C#N [Example 546] |  |  | > 10000 | 109 |  |  | 1090 |  |
| CN1C(=O)N(c2ccc(-c3cc(C(=O)Nc4cc(Cl)cc(NS(C)(=O)=O)c4)cn3C)nc2)C(=O)C1(C)C [Example 603] |  |  | 8370 | 45.8 |  |  | 1090 |  |
| CS(=O)(=O)Nc1cc(Cl)cc(NC(=O)c2cnn([C@H]3CCC[C@H]3Oc3ccccc3)c2)c1 (single isomer, unassigned) [Example 259] | > 10000 | 1940 |  |  |  |  |  |  |

The next lines start with results.

| EC50 [1] [nM] | IC50 [2] [nM] | IC50 (NCI-H747 cells; NCI-H747, NCI-H747) [nM] | EC50 [3, 4] [nM] | IC50 (NCI-H747 cells; NCI-H747, NCI-H747, CRC-MSS) [nM] | EC50 [3, 5] [nM] | Structure (SMILES) | IC50 (LS411N cells) [nM] | IC50 (LS411N cells; CRC-MSI-H) [nM] |
| --- | --- | --- | --- | --- | --- | --- | --- | --- |
|  |  | 2060 | 12.4 |  |  | Cc1sc(C(=O)Nc2cc(Cl)cc(NS(C)(=O)=O)c2)cc1-c1ccc(N2CCC(F)(F)C2)cn1 [Example 485] | 58.3 |  |
|  |  | 5430 | 127 |  |  | Cn1cc(C(=O)Nc2cc(Cl)cc(NS(C)(=O)=O)c2)cc1-c1c(F)cc(F)cc1F [Example 547] | 173 |  |
|  |  | 2060 | 22.5 |  |  | Cc1sc(C(=O)Nc2cc(Cl)cc(NS(C)(=O)=O)c2)cc1-c1ncc(N2CC(C(F)(F)F)C2)cn1 [Example 489] | 51 |  |
|  |  | 7410 | 37.2 |  |  | Cc1sc(C(=O)Nc2cc(Cl)cc(NS(C)(=O)=O)c2)cc1-c1ncc(N2CC3(C2)CC(F)(F)C3)cc1F [Example 511] | 149 |  |
|  |  | 6720 | 17.6 |  |  | Cc1sc(C(=O)Nc2cc(Cl)cc(NS(C)(=O)=O)c2)cc1-c1ncc(N2CCC3(COC3)C2)cc1F [Example 512] | 107 |  |
|  |  | 3870 | 50.6 |  |  | Cc1cc(C(=O)Nc2cc(Cl)cc(NS(C)(=O)=O)c2)cn1-c1ncc(N2CC(F)(F)C2)cc1F [Example 420] | 353 |  |
|  |  | 4330 | 37.8 |  |  | Cn1cc(C(=O)Nc2cc(Cl)cc(NS(C)(=O)=O)c2)cc1-c1ncc(N2CC(F)(F)C2)cc1F [Example 599] | 149 |  |
|  |  | 1710 | 61 |  |  | Cn1cc(C(=O)Nc2cc(Cl)cc(NS(C)(=O)=O)c2)cc1-c1ncc(N2CCCC(F)(F)C2)cc1F [Example 483] | 101 |  |
|  |  | 5810 | 18.2 |  |  | COc1cnc(-c2cc(C(=O)Nc3cc(Cl)cc(NS(C)(=O)=O)c3)cn2C)c(F)c1 [Example 454] | 218 |  |
|  |  | 4140 | 108 |  |  | Cc1sc(C(=O)Nc2cc(Cl)cc(NS(C)(=O)=O)c2)cc1-c1ncc(N2CC3C(C2)C3(C)C)cc1F (centres unmarked) [Example 476] | 140 |  |
|  |  | 6460 | 80.4 |  |  | CCS(=O)(=O)Nc1cc(Cl)cc(NC(=O)c2cc(-c3ncc(C)cc3F)n(C)c2)c1 [Example 548] | 226 |  |
|  |  | 5890 | 17.7 |  |  | CCS(=O)(=O)Nc1cc(Cl)cc(NC(=O)c2cc(-c3ncc(N4CC(F)C4)cn3)c(C)s2)c1 [Example 509] | 73.1 |  |
|  |  | 7410 | 16.9 |  |  | Cc1sc(C(=O)Nc2cc(Cl)cc(NS(C)(=O)=O)c2)cc1-c1ncc(N2CCC(F)(F)C2)cn1 [Example 479] | 37.4 |  |
|  |  | 4630 | 47.7 |  |  | CC(C)(C)Oc1cnc(-c2cc(C(=O)Nc3cc(Cl)cc(NS(C)(=O)=O)c3)sc2CO)nc1 [Example 686] | 132 |  |
|  |  | 6530 | 30 |  |  | Cc1cc(N2CC(F)(F)C2)cnc1-c1cc(C(=O)Nc2cc(Cl)cc(NS(C)(=O)=O)c2)sc1C [Example 537] | 82.8 |  |
